Experimental data reported in patent publication US8378117B2 (priority 2005, dated 2013).
Values joined by “and” are separate entries in the source; they are usually repeats but may differ in a detail not shown here. Equal values may be shown once. Read-outs that look alike come from different tables or passages of the source.

Columns and labels:
[1] = biological target: T1, CB1 receptor (Homo sapiens, UniProt P21554); assay: cell-based; conditions: SK-N-MC cells
T1 construct: expressed in transfected cells
Description: The CB1 and CB2 receptors are G-protein coupled receptors (GPCR), which influence cell function via the Gi-protein. These receptors modulate the activity of intracellular adenylate cyclase, which in turn produces the intracellular signal messenger cyclic-AMP (cAMP).
At baseline, or during non-ligand bound conditions, these receptors are constitutively active and tonically suppress adenylate cyclase activity. The binding of an agonist causes further receptor activation and produces additional suppression of adenylate cyclase activity. The binding of an inverse agonist inhibits the constitutive activity of the receptors and results in an increase in adenylate cyclase activity.
By monitoring intracellular adenylate cyclase activity, the ability of compounds to act as agonists or inverse agonists can be determined.
Test compounds were evaluated in SK-N-MC cells which, using standard transfection procedures, were stably transfected with human cDNA for pcDNA3-CRE β-gal and pcDNA3 CB1 receptor (human) or pcDNA3 CB2 receptor (human). By expressing CRE β-gal, the cells produced β-galactosidase in response to CRE promoter activation by cAMP. Cells expressing CRE β-gal and either the human CB1 or CB2 receptor will produce less β-galactosidase when treated with a CB1/CB2 agonist and will produce more β-galactosidase when treated with a CB1/CB2 inverse agonist.
The cells were grown in 96-well plates under standard cell culture conditions at 37° C. in a 5% CO2 atmosphere and culture media (wherein the media was supplemented with 2 mM L-glutamine, […] sodium pyruvate, 10% FBS (fetal bovine serum) and antibiotics).
The change in forskolin induced β-galactosidase activity was determined by setting a vehicle treated cell's activity value at 100% and expressing the β-galactosidase activity measured in a corresponding compound treated cell as a percent of the vehicle treated cell activity.
The EC50 value for functional activity for compounds tested was calculated by linear regression and was obtained from studies in which varying compound concentrations were used.
Where an EC50 value was not obtained for a test compound, the value shown (in %) represents change in functional activity and was obtained from a study in which one compound concentration was used.

[2] = biological target: T1, CB1 receptor; assay: Binding assay for CB1 agonists or inverse agonists (SK-N-MC membranes, [3H]-CP-55,940); conditions: for inhibition at 0.2 µM: read-out: CB1 receptor binding percent inhibition, test concentration 0.2 μM (footnote 2); for CB1 receptor binding average percent inhibition: value shown is an average percent inhibition (footnote 5), concentration not given
Procedure, shortened: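 Radioligand displacement: [3H]-CP-55,940 at […], 90 min at 30° C, pH 7.5 Tris buffer with 0.5 mg/mL fatty-acid-free BSA, using semi-purified membranes of human-CB1-transfected SK-N-MC cells. Bound counts collected on GF/C filters, 10 uM WIN 55,212 for non-specific; IC50 from percent inhibition over several concentrations.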

[3] = biological target: T2, CB2 receptor (Homo sapiens, UniProt P34972); assay: Binding assay for CB2 agonists or inverse agonists (SK-N-MC membranes, [3H]-CP-55,940); conditions: for CB2 receptor binding percent inhibition: test concentration not stated
T2 construct: expressed in transfected cells
Procedure, shortened: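 IC50 came from percent-inhibition data over several compound concentrations, fitted by linear regression. Binding used semi-purified membranes of human CB2-transfected SK-N-MC cells, 90 min at 30 °C, pH 7.5 Tris-HCl with MgCl2, EDTA and BSA, then filtration and scintillation counting.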

[4] = CB1 Receptor Functional Inverse Agonist EC50, forskolin induced β-galactosidase activity
[5] = Cannabinoid CB1 Receptor Binding IC50, calculated by linear regression from percent inhibition at various test concentrations
[6] = read-out: CB2 receptor binding percent inhibition, test concentration 0.2 μM (footnote 2)
[7] = read-out: CB1 receptor binding percent inhibition, test concentration 1 μM (footnote 1)
[8] = forskolin induced β-galactosidase activity, read-out: CB1 Receptor Functional Inverse Agonist EC50
[9] = read-out: CB1 receptor binding percent inhibition
[10] = calculated by linear regression from percent inhibition at various test concentrations, read-out: Cannabinoid CB1 Receptor Binding IC50

T2 sequence (P34972 whole entry): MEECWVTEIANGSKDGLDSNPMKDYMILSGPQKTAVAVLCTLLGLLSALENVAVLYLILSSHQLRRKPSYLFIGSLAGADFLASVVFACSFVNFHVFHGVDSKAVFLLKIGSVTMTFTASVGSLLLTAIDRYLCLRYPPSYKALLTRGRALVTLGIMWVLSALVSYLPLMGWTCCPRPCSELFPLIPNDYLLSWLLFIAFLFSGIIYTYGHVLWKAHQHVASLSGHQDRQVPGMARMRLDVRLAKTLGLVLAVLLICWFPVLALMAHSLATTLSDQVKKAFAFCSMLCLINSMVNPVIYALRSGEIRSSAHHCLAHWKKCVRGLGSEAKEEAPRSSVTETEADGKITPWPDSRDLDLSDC
T1 sequence (P21554 whole entry): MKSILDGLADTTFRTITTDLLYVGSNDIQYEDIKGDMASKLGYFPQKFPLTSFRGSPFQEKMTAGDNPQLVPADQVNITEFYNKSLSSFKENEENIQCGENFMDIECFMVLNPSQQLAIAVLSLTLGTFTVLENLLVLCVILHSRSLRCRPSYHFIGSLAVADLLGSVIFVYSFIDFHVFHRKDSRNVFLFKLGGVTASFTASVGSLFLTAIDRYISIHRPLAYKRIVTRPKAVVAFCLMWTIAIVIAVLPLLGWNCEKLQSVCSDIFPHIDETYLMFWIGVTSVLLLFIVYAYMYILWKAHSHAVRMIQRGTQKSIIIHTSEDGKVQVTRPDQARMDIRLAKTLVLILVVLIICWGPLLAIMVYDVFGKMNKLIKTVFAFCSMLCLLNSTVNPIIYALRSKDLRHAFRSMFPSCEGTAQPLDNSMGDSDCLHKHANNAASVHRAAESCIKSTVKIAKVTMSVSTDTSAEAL

Structure (SMILES)	EC50 [1, 4] [nM]	IC50 [2, 5]	inhibition at 0.2 µM [2] [%]	inhibition at 0.2 µM [3, 6] [%]	CB2 receptor binding percent inhibition [3] [%]	also measured
O=C(c1nn(-c2ccc(Cl)cc2Cl)c2c1CCCC/C2=C\c1ccc(F)cc1)N1CCCCC1c1ccccn1 (stereo not drawn) [Cpd 206, (8E)-[1-(2,4-dichloro-phenyl)-8-(4-fluoro-benzylidene)-1,4,5,6,7,8-hexahydro-cycloheptapyrazol-3-yl]-(3,4,5,6-tetrahydro-2H-[2,2′]bipyridinyl-1-yl)-methanone]	10	80 nM	73	22		
O=C(N[C@@H]1c2ccccc2C[C@@H]1O)c1nn(-c2ccc(Cl)cc2Cl)c2c1CCCCC2Cc1cccc(Cl)c1 (single isomer, unassigned) [Cpd 112, (8R*)-8-(3-chloro-benzyl)-1-(2,4-dichloro-phenyl)-1,4,5,6,7,8-hexahydro-cycloheptapyrazole-3-carboxylic acid [(1R,2S)-2-hydroxy-indan-1-yl]-amide]	60				16	inhibition at 1 µM [2, 7]: 49%
O=C(N[C@H](CO)c1ccccc1)c1nn(-c2ccc(Cl)cc2Cl)c2c1CCCC/C2=C\c1ccc(F)cc1 [Cpd 204, (8E)-1-(2,4-dichloro-phenyl)-8-(4-fluoro-benzylidene)-1,4,5,6,7,8-hexahydro-cycloheptapyrazole-3-carboxylic acid [(1S)-2-hydroxy-1-phenyl-ethyl]-amide]	3	30 nM	88	34		
COC(=O)[C@@H](Cc1ccc(O)cc1)NC(=O)c1nn(-c2ccc(Cl)cc2Cl)c2c1CCCCC2Cc1ccc(F)cc1 (stereo partly drawn) [Cpd 81, (2R)-2-{[1-(2,4-dichloro-phenyl)-8-(4-fluoro-benzyl)-1,4,5,6,7,8-hexahydro-cycloheptapyrazole-3-carbonyl]-amino}-3-(4-hydroxy-phenyl)-propionic acid methyl ester]					28	EC50 [1, 8]: 300 nM; CB1 receptor binding average percent inhibition [2]: ^(5)42%
COC(=O)[C@@H](Cc1ccc(O)cc1)NC(=O)c1nn(-c2ccc(Cl)cc2Cl)c2c1CCCCC2Cc1cccc(F)c1 (stereo partly drawn) [Cpd 80, (2R)-2-{[1-(2,4-dichloro-phenyl)-8-(3-fluoro-benzyl)-1,4,5,6,7,8-hexahydro-cycloheptapyrazole-3-carbonyl]-amino}-3-(4-hydroxy-phenyl)-propionic acid methyl ester]	60	700 nM			23	CB1 receptor binding average percent inhibition [2]: 51%
CCOC(=O)[C@@H]1C2CCC(C2)[C@@H]1NC(=O)c1nn(-c2ccc(F)cc2F)c2c1CCCCC2Cc1ccc(F)cc1 (stereo partly drawn) [Cpd 110, (2R,3S)-3-{[1-(2,4-difluoro-phenyl)-8-(4-fluoro-benzyl)-1,4,5,6,7,8-hexahydro-cycloheptapyrazole-3-carbonyl]-amino}-bicyclo[2.2.1]heptane-2-carboxylic acid ethyl ester]	100				59	inhibition at 0.5 µM [2, 9]: 48%; inhibition at 1 µM [2, 9]: 63%; CB1 receptor binding percent inhibition ([2]; test concentration not stated): 56%
O=C(NN1CCCCC1)c1nn(-c2ccc(Cl)cc2Cl)c2c1CCCC/C2=C\c1ccc(F)cc1 [Cpd 150, (8E)-1-(2,4-dichloro-phenyl)-8-(4-fluoro-benzylidene)-1,4,5,6,7,8-hexahydro-cycloheptapyrazole-3-carboxylic acid piperidin-1-ylamide]	20	100 nM	65	3		
C[C@@H](NC(=O)c1nn(-c2ccc(Cl)cc2Cl)c2c1CCCC/C2=C\c1ccc(F)cc1)c1ccccn1 [Cpd 225, (8E)-1-(2,4-dichloro-phenyl)-8-(4-fluoro-benzylidene)-1,4,5,6,7,8-hexahydro-cycloheptapyrazole-3-carboxylic acid [(1R)-1-pyridin-2-yl-ethyl]-amide]	1	5 nM and 6 nM and 7 nM	90	6		CB1 receptor binding percent inhibition ([2]; test concentration 0.2 μM (footnote 2), 0.2 µM): 89%; CB1 receptor binding average percent inhibition [2]: 96%; inhibition at 1 µM ([3]; read-out: CB2 receptor binding percent inhibition, test concentration 1 μM (footnote 1)): 16%
C[C@H](NS(=O)(=O)/C=C/c1nn(C2CCCCC2)c2c1CCCCC2Cc1cccc(F)c1)c1ccccc1 (stereo partly drawn) [Cpd 75, (2E)-2-[1-cyclohexyl-8-(3-fluoro-benzyl)-1,4,5,6,7,8-hexahydro-cycloheptapyrazol-3-yl]-ethenesulfonic acid [(1S)-1-phenyl-ethyl]-amide]	70	200 nM			27	CB1 receptor binding average percent inhibition [2]: 77%
O=S(=O)(/C=C/c1nn(-c2ccc(F)cc2F)c2c1CCCCC2Cc1cccc(F)c1)NN1CCCCC1 (stereo not drawn) [Cpd 123, (2E)-2-[1-(2,4-difluoro-phenyl)-8-(3-fluoro-benzyl)-1,4,5,6,7,8-hexahydro-cycloheptapyrazol-3-yl]-ethenesulfonic acid piperidin-1-ylamide]	2900				14	inhibition at 1 µM [2, 9]: 47%
C[C@H](NC(=O)c1nn(-c2ccc(Cl)cc2Cl)c2c1CCCC/C2=C\c1ccc(F)cc1)c1ccccc1 [Cpd 149, (8E)-1-(2,4-dichloro-phenyl)-8-(4-fluoro-benzylidene)-1,4,5,6,7,8-hexahydro-cycloheptapyrazole-3-carboxylic acid [(1S)-1-phenyl-ethyl]-amide]	60	100 nM	66	4		
C[C@H](NC(=O)c1nn(C2CCCCC2)c2c1CCCCC2Cc1cccc(F)c1)c1ccccc1 (stereo partly drawn) [Cpd 45, 1-cyclohexyl-8-(3-fluoro-benzyl)-1,4,5,6,7,8-hexahydro-cycloheptapyrazole-3-carboxylic acid [(1S)-1-phenyl-ethyl]-amide]					42	EC50 [1, 8]: 1100 nM; IC50 [2, 10]: 700 nM; inhibition at 1 µM [2, 7]: 54%
O=C(Nc1ccccn1)c1nn(-c2ccc(Cl)cc2Cl)c2c1CCCC/C2=C\c1ccc(Cl)cc1 [Cpd 152, (8E)-8-(4-chloro-benzylidene)-1-(2,4-dichloro-phenyl)-1,4,5,6,7,8-hexahydro-cycloheptapyrazole-3-carboxylic acid pyridin-2-ylamide]			66			EC50 [1, 8]: 200 nM; inhibition at 0.0125 µM ([2]; read-out: CB1 receptor binding percent inhibition, test concentration 0.0125 μM (footnote 13)): 28%; CB1 receptor binding percent inhibition ([2]; test concentration not stated): 47%; inhibition at 0.2 µM ([3]; test concentration 0.2 μM (footnote 2), read-out: CB2 receptor binding percent inhibition): 21%
C[C@@H](NC(=O)c1nn(-c2ccccc2Cl)c2c1CCCC/C2=C\c1ccc(Cl)cc1)c1ccccc1 [Cpd 190, (8E)-8-(4-chloro-benzylidene)-1-(2-chloro-phenyl)-1,4,5,6,7,8-hexahydro-cycloheptapyrazole-3-carboxylic acid [(1R)-1-phenyl-ethyl]-amide]	9	80 nM	76	12		
CC12CCC(C1)C(C)(C)[C@H]2NC(=O)c1nn(-c2ccc(Cl)cc2Cl)c2c1CCCCC2Cc1cccc(F)c1 (stereo partly drawn) [Cpd 42, 1-(2,4-dichloro-phenyl)-8-(3-fluoro-benzyl)-1,4,5,6,7,8-hexahydro-cycloheptapyrazole-3-carboxylic acid [(2S)-1,3,3-trimethyl-bicyclo[2.2.1]hept-2-yl]-amide]						EC50 [1, 8]: 300 nM; IC50 [2, 10]: 300 nM; inhibition at 1 µM [2, 7]: 65%; IC50 ([3]; calculated by linear regression from percent inhibition at various test concentrations, read-out: Cannabinoid CB2 Receptor Binding IC50): 300 nM; inhibition at 1 µM ([3]; test concentration 1 μM (footnote 1), read-out: CB2 receptor binding percent inhibition): 52%
